Measured values as given in PubChem BioAssay AID256 (DTP/NCI, 2004).
“And” between values parts separate entries of the source, which are not always exact repeats. Identical values can stand only once. Toxic doses and inconclusive results are not listed. How the source made its calls: active means survival T/C of 150% or more; inactive means T/C below 125% in these data.

System: CD2F1 mice, L1210 leukemia ip, survival T/C
Test: NCI In Vivo Anticancer Drug Screen. Data for tumor model L1210 Leukemia (intraperitoneal) in CD2F1 (CDF1) mice
Conditions: endpoint: mean survival time, higher = longer survival
In short: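 Read-out first: treated-group measurement over vehicle-control measurement, expressed as a ratio. Animals bore a transplanted tumor line and were dosed with compound or vehicle.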

[1] = dose: 100.0 mg/kg/injection, schedule: Q04DX003 (ip), vehicle: saline with Tween-80
[2] = dose: 200.0 mg/kg/injection, schedule: Q04DX003 (ip), vehicle: saline with Tween-80
[3] = dose: 400.0 mg/kg/injection, schedule: Q04DX003 (ip), vehicle: saline with Tween-80
[4] = dose: 100.0 mg/kg/injection, schedule: Q04DX003 (ip), vehicle: Klucel (hydroxypropylcellulose) (HPC)
[5] = dose: 100.0 mg/kg/injection, schedule: Q01DX001 (ip), vehicle: saline with Tween-80
[6] = dose: 200.0 mg/kg/injection, schedule: Q01DX001 (ip), vehicle: saline with Tween-80
[7] = dose: 400.0 mg/kg/injection, schedule: Q01DX001 (ip), vehicle: saline with Tween-80
[8] = dose: 100.0 mg/kg/injection, schedule: Q01DX001 (ip), vehicle: saline
[9] = dose: 200.0 mg/kg/injection, schedule: Q01DX001 (ip), vehicle: saline
[10] = dose: 100.0 mg/kg/injection, schedule: Q01DX009 (ip), vehicle: saline with Tween-80
[11] = dose: 200.0 mg/kg/injection, schedule: Q01DX009 (ip), vehicle: saline with Tween-80
[12] = dose: 400.0 mg/kg/injection, schedule: Q01DX009 (ip), vehicle: saline with Tween-80
[13] = dose: 50.0 mg/kg/injection, schedule: Q01DX009 (ip), vehicle: saline with Tween-80
[14] = dose: 100.0 mg/kg/injection, schedule: Q04DX002 (ip), vehicle: saline with Tween-80
[15] = dose: 200.0 mg/kg/injection, schedule: Q04DX002 (ip), vehicle: saline with Tween-80
[16] = dose: 400.0 mg/kg/injection, schedule: Q04DX002 (ip), vehicle: saline with Tween-80

Measured: T/C

CC(C(=O)O)=C(c1ccccc1)c1ccccc1
inactive: [1] 90 % of control | [2] 93 % of control | [3] 87 % of control

OC(CCc1ccccc1)(C(F)(F)F)C(F)(F)F
inactive: [4] 92 % of control | dose: 200.0 mg/kg/injection, schedule: Q04DX003 (ip), vehicle: Klucel (hydroxypropylcellulose) (HPC) 95 % of control | dose: 400.0 mg/kg/injection, schedule: Q04DX003 (ip), vehicle: Klucel (hydroxypropylcellulose) (HPC) 97 % of control

O=C(Oc1ccccc1)C(O)CO (stereo unspecified)
inactive: [5] 104 % of control | [6] 101 % of control | [7] 97 % of control

CCCN(CCC)S(=O)(=O)c1ccc(NC(=O)OC2CCCCC2)cc1
inactive: [8] 93 % of control | [9] 98 % of control | dose: 400.0 mg/kg/injection, schedule: Q01DX001 (ip), vehicle: saline 97 % of control

CN1CCN(CCCN2C(=O)C3CC=CCC3C2=O)CC1 (stereo unspecified)
inactive: [8] 102 % of control | [9] 93 % of control

Cc1c(C)c(OC(=O)c2ccccc2)c(Br)c(C)c1OC(=O)c1ccccc1
inactive: [5] 91 % of control | [10] 100 % of control | [6] 100 % of control | [11] 100 % of control | [7] 100 % of control | [12] 100 % of control

COc1cc([N+](=O)[O-])ccc1NC(=O)Nc1nccs1
inactive: [13] 96 % of control and 97 % of control | [5] 97 % of control | [14] 87 % of control | [1] 98 % of control | [6] 92 % of control | [11] 95 % of control and 100 % of control and 104 % of control | [15] 95 % of control | [2] 95 % of control | [7] 100 % of control | [12] 97 % of control | [16] 102 % of control | [3] 101 % of control

Cc1cccc(Cl)c1NC(=O)/C=C/c1ccccc1
inactive: [14] 87 % of control | [15] 94 % of control | [16] 105 % of control

Nc1ccc(NC(=S)Nc2ccc(N)cc2)cc1
inactive: dose: 25.0 mg/kg/injection, schedule: Q04DX003 (ip), vehicle: Klucel (hydroxypropylcellulose) (HPC) 104 % of control | dose: 50.0 mg/kg/injection, schedule: Q04DX003 (ip), vehicle: Klucel (hydroxypropylcellulose) (HPC) 106 % of control | [4] 98 % of control

COc1cnnc2ccccc12
inactive: [1] 104 % of control | [2] 103 % of control | [3] 92 % of control

Cc1ccc[n+](CCCCCCCC[n+]2cccc(C)c2)c1
inactive: dose: 0.5 mg/kg/injection, schedule: Q04DX003 (ip), vehicle: saline 100 % of control | dose: 1.0 mg/kg/injection, schedule: Q04DX003 (ip), vehicle: saline 103 % of control | dose: 2.0 mg/kg/injection, schedule: Q04DX003 (ip), vehicle: saline 106 % of control

Nc1nc(N)c(-c2ccc(Cl)c(Cl)c2)c(/C=C/C=C/c2cccnc2)n1
inactive: [13] 110 % of control | [10] 95 % of control
